Experimental data from ChEMBL document CHEMBL1201862, “PubChem BioAssay data set” (2004).
Active and inactive are the calls of the source.

Experiments:
[1] = target: Adenosylmethionine-8-amino-7-oxononanoate aminotransferase (Mycobacterium tuberculosis, UniProt P9WQ81); assay: Mycobacterium tuberculosis BioA enzyme inhibitor Measured in Biochemical System Using Plate Reader - 2163-02_Inhibitor_Dose_CherryPick_Activity.; format: functional, Mycobacterium tuberculosis UT205
Steroidogenic factor 1 = Steroidogenic factor 1 (Homo sapiens, UniProt Q13285); assay: Counterscreen for inverse agonists of the liver receptor homolog-1 (LRH-1; NR5A2): Luminescence-based cell-based high throughput dose response assay to identify inverse agonists of the Steroidogenic Factor 1 Nuclear Receptor (SF1; NR5A1).; format: functional
[2] = target: Nuclear receptor subfamily 5 group A member 2 (Homo sapiens, UniProt O00482); format: functional, cell-based;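 note: HEK293T cells transfected with LRH-1 and a StAR promoter luciferase reporter; potency for inhibitors that lower LRH-1 driven reporter light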
Nuclear receptor subfamily 5 group A member 2, sequence (O00482 whole entry): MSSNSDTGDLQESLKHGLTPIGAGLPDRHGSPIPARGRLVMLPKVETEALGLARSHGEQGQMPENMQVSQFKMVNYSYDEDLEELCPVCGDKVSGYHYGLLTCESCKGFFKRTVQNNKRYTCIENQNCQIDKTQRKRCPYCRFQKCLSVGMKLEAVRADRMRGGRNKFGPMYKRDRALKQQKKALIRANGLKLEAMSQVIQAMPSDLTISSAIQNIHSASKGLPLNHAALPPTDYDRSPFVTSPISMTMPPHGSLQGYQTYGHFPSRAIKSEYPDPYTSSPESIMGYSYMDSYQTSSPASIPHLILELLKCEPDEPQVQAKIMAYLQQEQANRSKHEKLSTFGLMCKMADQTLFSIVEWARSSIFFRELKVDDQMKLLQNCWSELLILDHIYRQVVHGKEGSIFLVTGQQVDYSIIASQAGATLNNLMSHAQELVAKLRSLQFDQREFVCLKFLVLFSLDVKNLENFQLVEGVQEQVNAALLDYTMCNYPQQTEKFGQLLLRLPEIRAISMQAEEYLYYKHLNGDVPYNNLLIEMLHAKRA

[3] = nonselective StAR promoter luciferase inhibitors – cell-based, luminescence, luciferase reporter, counter-screen for LRH-1 inverse agonist project, dose response (AID 651969); format: functional
[4] = inhibition of ARNT PAS-B/TACC3 complex formation – biochemical, AlphaScreen, cherry-picked samples, confirmation (AID 651703); format: functional, Homo sapiens;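 note: His-tagged ARNT PAS-B domain paired with GST-TACC3 E629A dimer coactivator fragment; potency of inhibitors that break up the complex and lower AlphaScreen signal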
[5] = target: Induced myeloid leukemia cell differentiation protein Mcl-1 (Homo sapiens, UniProt Q07820); format: functional
Induced myeloid leukemia cell differentiation protein Mcl-1, sequence (Q07820 whole entry): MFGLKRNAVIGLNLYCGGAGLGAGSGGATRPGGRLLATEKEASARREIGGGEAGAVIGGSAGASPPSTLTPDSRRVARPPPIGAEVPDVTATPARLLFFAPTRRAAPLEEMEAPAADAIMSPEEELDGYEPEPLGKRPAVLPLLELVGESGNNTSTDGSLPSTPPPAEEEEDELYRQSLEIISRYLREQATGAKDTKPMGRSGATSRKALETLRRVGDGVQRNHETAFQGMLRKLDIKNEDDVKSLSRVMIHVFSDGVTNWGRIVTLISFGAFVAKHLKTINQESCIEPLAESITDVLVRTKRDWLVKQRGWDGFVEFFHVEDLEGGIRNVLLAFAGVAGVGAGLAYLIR

[6] = target: T1, Probable nicotinate-nucleotide adenylyltransferase (Staphylococcus aureus (strain N315), UniProt P65502); format: functional, Staphylococcus aureus subsp. aureus N315; conditions: read-out: IC50_Mean;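 for IC50 Mean: confirmatory dose-response retesting of NadD inhibitor hits first found in an ultra-high-throughput screen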
T1 sequence (P65502 whole entry): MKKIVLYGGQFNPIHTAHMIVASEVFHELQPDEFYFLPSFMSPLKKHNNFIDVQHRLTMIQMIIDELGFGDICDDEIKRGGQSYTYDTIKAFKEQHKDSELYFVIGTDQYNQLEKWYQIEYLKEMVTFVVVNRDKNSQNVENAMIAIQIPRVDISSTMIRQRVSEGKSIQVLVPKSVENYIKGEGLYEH

[7] = target: T1, Probable nicotinate-nucleotide adenylyltransferase; format: functional, Staphylococcus aureus subsp. aureus N315
Genome polyprotein = Genome polyprotein (dengue virus type 2, UniProt P29990); assay: flavivirus cap methylation enzyme inhibition – biochemical, confirmation dose response, primary screen (AID 588689); format: functional
Genome polyprotein, sequence (P29990 2492-3391 limits assumed): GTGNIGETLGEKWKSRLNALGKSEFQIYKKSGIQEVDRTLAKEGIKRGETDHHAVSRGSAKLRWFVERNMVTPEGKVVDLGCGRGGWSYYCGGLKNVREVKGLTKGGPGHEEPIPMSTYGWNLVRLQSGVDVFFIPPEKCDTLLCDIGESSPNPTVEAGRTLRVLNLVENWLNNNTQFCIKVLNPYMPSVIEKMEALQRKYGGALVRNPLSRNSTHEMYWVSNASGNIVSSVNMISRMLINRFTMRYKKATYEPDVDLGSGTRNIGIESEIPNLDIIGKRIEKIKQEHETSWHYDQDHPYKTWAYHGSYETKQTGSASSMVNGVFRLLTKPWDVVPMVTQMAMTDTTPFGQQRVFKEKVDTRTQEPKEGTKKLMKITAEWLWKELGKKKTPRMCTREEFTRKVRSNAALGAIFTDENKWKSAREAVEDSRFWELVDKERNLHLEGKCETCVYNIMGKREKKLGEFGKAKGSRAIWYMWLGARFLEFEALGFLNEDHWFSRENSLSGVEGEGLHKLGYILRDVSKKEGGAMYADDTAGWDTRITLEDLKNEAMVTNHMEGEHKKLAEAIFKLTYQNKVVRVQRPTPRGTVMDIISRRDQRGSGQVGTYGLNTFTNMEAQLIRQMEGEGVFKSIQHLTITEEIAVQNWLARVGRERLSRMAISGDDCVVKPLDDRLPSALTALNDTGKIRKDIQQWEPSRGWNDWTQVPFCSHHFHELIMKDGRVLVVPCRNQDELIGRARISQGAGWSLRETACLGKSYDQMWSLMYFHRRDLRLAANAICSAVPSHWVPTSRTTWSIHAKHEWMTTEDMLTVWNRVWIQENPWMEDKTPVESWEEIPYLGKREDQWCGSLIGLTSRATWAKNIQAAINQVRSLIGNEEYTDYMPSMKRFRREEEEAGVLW

[8] = target: T2, Sentrin-specific protease 1 (Homo sapiens, UniProt Q9P0U3); assay: Dose response confirmation of small molecule inhibitors of the catalytic domain of the SUMO protease, SENP1 in a FRET assay.; format: functional; conditions: read-out: IC50_Mean
T2 sequence (Q9P0U3 whole entry, the tested form may be a part): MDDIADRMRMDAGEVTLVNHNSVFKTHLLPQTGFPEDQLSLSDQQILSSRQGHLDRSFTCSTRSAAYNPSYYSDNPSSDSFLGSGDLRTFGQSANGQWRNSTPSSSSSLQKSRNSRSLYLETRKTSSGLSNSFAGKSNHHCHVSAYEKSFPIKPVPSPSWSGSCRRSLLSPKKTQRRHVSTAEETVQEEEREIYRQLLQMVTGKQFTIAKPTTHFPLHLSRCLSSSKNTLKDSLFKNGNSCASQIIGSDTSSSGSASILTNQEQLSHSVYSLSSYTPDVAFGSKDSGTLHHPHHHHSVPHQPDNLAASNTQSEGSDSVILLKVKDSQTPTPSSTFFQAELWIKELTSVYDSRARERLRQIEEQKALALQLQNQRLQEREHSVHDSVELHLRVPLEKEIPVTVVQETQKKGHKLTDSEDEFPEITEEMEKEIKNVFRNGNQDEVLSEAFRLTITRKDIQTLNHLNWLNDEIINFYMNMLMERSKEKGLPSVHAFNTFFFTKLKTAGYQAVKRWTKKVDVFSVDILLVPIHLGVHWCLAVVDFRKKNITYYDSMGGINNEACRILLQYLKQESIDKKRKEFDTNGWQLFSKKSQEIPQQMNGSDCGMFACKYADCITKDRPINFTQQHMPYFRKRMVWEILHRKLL

[9] = target: T2, Sentrin-specific protease 1; assay: SENP1 catalytic domain blockers, concentration series – biochemical, kinetic FRET, dose response (AID 651697); format: functional; conditions: read-out: IC50_Mean
[10] = target: T3, Polyadenylate-binding protein 1 (Homo sapiens, UniProt P11940); assay: MLLE domain peptide-binding blockers, IC50 – biochemical, fluorescence polarization, FITC-PAM2 peptide, dose response (AID 602259); format: functional; conditions: read-out: IC50_Mean
T3 sequence (P11940 whole entry, the tested form may be a part): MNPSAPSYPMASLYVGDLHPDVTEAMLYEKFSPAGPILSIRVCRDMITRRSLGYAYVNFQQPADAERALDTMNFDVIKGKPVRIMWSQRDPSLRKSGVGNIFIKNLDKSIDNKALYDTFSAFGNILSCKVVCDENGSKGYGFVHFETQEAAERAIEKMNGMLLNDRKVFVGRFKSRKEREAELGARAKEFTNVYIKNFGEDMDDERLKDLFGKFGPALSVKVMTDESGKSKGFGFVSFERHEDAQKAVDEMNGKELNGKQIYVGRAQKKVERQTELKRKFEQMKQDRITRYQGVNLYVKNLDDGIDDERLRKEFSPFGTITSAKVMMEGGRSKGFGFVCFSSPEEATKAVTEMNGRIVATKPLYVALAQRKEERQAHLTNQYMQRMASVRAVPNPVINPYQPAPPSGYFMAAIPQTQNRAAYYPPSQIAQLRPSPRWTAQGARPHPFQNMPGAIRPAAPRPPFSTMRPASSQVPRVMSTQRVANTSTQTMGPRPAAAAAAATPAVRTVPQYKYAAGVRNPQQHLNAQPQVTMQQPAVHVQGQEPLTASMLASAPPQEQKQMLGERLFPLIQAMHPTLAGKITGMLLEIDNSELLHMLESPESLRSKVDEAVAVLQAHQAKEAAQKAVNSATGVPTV

[11] = target: T3, Polyadenylate-binding protein 1; assay: MLLE binding blockers, Cy5 peptide tracer – biochemical, fluorescence polarization, Cy5-PAM2 peptide, secondary, miRNA deadenylation inhibitor project, dose response (AID 602260); format: functional; conditions: read-out: IC50_Mean
Vero = assay: viability of Vero cells under compound – cytotoxicity control for flavivirus capping enzyme inhibitors (AID 588742); format: functional; conditions: Chlorocebus sabaeus
Protein RecA = target: T4, Protein RecA (Mycobacterium tuberculosis, UniProt P9WHJ3); assay: Fluorescence Cell-Free Homogeneous Dose Retest to Identify Inhibitors of RecA-Intein Splicing Activity. [Related pubchem assays (depositor defined):AID2097, AID2223, AID489010, AID492950]; format: functional
T4 sequence (P9WHJ3 whole entry): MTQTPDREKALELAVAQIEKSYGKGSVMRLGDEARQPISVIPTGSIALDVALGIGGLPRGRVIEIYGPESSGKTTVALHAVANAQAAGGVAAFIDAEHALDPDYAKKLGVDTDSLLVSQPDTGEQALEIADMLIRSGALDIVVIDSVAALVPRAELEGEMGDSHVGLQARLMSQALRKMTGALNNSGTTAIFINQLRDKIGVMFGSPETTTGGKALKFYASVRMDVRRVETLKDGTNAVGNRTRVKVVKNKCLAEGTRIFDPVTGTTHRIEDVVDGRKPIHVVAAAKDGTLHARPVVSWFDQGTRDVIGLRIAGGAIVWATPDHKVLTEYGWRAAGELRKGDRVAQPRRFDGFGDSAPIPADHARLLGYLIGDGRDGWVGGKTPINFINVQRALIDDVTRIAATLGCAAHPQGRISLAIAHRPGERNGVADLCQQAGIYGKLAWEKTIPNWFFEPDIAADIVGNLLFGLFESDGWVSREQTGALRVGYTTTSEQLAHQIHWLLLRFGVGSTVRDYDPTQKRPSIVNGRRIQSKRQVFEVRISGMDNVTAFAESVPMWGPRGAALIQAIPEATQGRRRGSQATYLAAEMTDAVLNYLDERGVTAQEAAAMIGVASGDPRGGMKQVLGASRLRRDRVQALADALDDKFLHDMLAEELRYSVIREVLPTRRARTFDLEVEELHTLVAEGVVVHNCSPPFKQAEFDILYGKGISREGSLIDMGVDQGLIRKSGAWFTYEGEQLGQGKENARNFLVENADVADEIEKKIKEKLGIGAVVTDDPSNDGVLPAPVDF

[12] = target: Hepatocyte nuclear factor 4-alpha (Homo sapiens, UniProt P41235); format: functional, cell-based;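 note: biochemical luminescence-based dose-response counterscreen measuring inhibition of HNF4 dimerization, run alongside a screen for blockers of ABHD5–perilipin-5 interaction; split luciferase complementation of HNF4 fusion proteins in cell lysate measuring dimerization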
Hepatocyte nuclear factor 4-alpha, sequence (P41235 whole entry, the tested form may be a part): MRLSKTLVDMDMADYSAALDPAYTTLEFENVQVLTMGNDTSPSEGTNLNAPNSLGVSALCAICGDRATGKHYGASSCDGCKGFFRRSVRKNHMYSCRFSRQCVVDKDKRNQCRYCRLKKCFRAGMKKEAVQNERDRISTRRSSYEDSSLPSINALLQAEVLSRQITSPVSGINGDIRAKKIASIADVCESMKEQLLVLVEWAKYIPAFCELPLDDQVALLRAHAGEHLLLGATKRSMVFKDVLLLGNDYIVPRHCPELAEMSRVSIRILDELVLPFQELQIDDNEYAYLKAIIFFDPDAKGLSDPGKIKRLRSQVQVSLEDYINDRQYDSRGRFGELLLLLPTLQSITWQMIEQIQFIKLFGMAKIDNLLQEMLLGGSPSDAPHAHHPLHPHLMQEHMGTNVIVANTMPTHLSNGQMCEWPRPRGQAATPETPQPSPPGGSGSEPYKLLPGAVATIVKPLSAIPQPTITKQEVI

[13] = reduction of Shn3 3'UTR-driven luciferase in osteoblasts – cell-based, Clone20 osteoblasts, firefly luciferase, cherry-picked, dose response (AID 624132); format: functional;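 note: firefly luciferase luminescence from reporter carrying the Shn3 3'UTR in osteoblasts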
[14] = non-specific 3'UTR reporter inhibition in Clone20-Shn3RL – cell-based, Renilla luciferase, cherry-picked, counter-screen for Shn3 inhibitor project, dose response (AID 624133); format: functional
[15] = target: T5, Replicative DNA helicase DnaB (Mycobacterium tuberculosis, UniProt P9WMR3); assay: DnaB intein splicing inhibitors, dose response, biochemical, cell-free fluorescence (AID 449749); format: functional
T5 sequence (P9WMR3 whole entry): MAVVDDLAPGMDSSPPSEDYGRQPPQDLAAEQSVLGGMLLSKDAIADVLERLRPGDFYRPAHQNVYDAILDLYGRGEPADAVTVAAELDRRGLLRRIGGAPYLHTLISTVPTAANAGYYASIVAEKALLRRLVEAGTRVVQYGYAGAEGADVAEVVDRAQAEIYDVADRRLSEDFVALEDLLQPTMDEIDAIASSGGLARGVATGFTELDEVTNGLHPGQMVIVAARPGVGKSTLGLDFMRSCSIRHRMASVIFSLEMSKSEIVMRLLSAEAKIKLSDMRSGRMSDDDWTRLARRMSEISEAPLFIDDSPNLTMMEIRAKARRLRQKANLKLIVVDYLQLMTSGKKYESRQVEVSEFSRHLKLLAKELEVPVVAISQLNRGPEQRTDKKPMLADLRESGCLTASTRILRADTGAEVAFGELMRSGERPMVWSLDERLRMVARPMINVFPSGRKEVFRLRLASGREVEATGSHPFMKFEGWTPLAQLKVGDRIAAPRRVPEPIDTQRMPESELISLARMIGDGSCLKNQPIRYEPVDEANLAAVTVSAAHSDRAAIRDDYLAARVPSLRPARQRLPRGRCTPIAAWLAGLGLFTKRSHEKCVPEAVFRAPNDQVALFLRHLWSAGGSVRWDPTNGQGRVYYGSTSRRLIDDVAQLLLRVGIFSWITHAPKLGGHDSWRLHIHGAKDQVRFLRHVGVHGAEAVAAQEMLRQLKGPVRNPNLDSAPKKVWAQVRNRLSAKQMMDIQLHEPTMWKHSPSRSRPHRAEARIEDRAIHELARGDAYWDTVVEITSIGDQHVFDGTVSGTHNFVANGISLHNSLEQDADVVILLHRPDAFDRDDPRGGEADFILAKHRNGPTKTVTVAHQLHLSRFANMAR

[16] = loss of viability in HepG2 cells – cell-based, CellTiter-Glo, cherry-picked, cytotoxicity control for Shn3 inhibitor project, dose response (AID 624134); format: functional
Cytochrome P450 3A4 = Cytochrome P450 3A4 (Homo sapiens, UniProt P08684);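 note: CYP3A4 tested as one member of a cytochrome P450 panel screen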
Escherichia coli = assay: microbe, parasite or virus in culture
[17] = bead-based luminescence quenchers, dual-tagged ARNT – biochemical, AlphaScreen, cherry-pick, artefact control for ARNT-TACC3 interaction inhibitor project, dose response (AID 651705); format: functional;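 note: AlphaScreen bead proximity signal that flags compounds interfering with the detection technology; potency reflects signal decrease which marks the compound as an assay artifact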
[18] = target: T6, Aryl hydrocarbon receptor (Homo sapiens, UniProt P35869); conditions: Potency;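 note: confirmatory quantitative high-throughput screen measuring activation of the AhR signaling pathway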
T6 sequence (P35869 whole entry): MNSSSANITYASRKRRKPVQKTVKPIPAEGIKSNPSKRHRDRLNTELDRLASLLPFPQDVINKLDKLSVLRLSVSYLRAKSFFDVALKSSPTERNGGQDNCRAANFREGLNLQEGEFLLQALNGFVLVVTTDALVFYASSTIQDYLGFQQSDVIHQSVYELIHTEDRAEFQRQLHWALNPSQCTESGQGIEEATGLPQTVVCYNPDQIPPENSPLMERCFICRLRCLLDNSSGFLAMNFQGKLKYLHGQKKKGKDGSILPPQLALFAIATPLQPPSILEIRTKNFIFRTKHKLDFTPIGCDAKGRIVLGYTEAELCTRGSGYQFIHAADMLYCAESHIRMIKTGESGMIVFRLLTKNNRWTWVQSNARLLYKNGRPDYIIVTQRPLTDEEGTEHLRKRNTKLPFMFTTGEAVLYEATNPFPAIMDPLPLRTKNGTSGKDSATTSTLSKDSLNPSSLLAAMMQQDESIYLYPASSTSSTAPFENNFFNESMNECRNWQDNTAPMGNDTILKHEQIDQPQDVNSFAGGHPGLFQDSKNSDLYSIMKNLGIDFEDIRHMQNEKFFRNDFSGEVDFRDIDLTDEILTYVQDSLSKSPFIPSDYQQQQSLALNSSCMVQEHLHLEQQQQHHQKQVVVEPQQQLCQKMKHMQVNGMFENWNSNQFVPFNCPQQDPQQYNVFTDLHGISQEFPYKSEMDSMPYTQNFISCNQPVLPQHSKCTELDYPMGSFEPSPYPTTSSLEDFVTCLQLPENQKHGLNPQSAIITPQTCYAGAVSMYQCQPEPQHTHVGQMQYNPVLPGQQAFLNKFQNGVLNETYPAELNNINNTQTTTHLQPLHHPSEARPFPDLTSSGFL

[19] = target: Dual specificity protein phosphatase 3 (Homo sapiens, UniProt P51452); assay: VHR phosphatase inhibition, dose response, selectivity assay for STEP inhibitor project, biochemical (AID 602374); format: functional; conditions: read-out: IC50_Mean
Dual specificity protein phosphatase 3, sequence (P51452 whole entry): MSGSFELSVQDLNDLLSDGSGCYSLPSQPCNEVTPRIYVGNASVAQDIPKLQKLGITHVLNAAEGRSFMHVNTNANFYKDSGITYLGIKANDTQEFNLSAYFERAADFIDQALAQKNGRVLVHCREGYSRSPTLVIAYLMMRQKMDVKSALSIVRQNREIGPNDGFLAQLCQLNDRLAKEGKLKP

[20] = target: Tyrosine-protein phosphatase non-receptor type 11 (Homo sapiens, UniProt Q06124); assay: PTPN11 enzyme inhibitors – biochemical, selectivity assay for STEP inhibitor project, dose response (AID 602367); format: functional; conditions: read-out: IC50_Mean
Tyrosine-protein phosphatase non-receptor type 11, sequence (Q06124 whole entry): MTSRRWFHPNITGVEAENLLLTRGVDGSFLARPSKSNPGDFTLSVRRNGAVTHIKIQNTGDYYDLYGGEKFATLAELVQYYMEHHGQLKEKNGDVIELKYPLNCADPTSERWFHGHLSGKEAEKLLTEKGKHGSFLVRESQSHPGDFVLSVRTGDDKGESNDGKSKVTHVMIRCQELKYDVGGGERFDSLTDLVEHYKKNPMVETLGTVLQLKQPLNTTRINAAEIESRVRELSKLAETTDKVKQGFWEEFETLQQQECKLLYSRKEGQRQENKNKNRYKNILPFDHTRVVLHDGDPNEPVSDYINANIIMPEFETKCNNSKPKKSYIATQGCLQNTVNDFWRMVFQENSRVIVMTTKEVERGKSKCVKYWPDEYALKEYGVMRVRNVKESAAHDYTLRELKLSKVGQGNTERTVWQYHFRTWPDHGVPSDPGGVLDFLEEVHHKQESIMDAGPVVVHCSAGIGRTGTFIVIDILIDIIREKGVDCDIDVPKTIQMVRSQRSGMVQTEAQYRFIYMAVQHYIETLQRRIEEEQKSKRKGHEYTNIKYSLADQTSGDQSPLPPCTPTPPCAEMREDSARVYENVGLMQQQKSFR

[21] = target: Tyrosine-protein phosphatase non-receptor type 5 (Homo sapiens, UniProt P54829); assay: PTPN5 enzyme inhibition – biochemical, fluorescence intensity, uHTS hits, confirmation (AID 602372); format: functional; conditions: read-out: IC50_Mean
[22] = target: T7, Low molecular weight phosphotyrosine protein phosphatase (Homo sapiens, UniProt P24666); format: functional; conditions: read-out: IC50_Mean
T7 sequence (P24666 whole entry): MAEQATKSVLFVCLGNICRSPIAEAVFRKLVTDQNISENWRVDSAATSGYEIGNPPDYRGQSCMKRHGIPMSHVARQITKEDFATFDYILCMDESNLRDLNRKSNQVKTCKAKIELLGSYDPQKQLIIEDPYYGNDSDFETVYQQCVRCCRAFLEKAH

[23] = target: T7, Low molecular weight phosphotyrosine protein phosphatase; format: functional; conditions: read-out: IC50_Mean; remark: listed apart in the source

Adenosylmethionine-8-amino-7-oxononanoate aminotransferase, sequence (P9WQ81 whole entry): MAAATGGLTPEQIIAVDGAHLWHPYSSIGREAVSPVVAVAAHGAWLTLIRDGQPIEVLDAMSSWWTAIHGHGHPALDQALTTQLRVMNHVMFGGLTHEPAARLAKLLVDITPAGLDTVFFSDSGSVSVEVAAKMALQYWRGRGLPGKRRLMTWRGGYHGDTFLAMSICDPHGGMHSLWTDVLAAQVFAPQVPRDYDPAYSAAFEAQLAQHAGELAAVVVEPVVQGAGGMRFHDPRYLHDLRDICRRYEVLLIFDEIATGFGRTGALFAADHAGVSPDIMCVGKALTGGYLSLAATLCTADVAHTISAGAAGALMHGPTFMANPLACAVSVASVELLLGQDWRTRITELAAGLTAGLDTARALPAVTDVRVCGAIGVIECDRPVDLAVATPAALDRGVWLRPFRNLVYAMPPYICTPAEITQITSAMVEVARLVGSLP

CC(=O)c1ccc(N2CCN(C(=O)Cc3ccccc3)CC2)c(F)c1
AC50 [1]: 4.97 µM (active)

NC(=O)C1CCN(C(=O)COc2ccc3c4c(c(=O)oc3c2)CCC4)CC1
IC50 (Steroidogenic factor 1): 35.9 µM (inactive) | IC50 [2]: 35.9 µM (inactive) | IC50 [3]: 35.9 µM (inactive)

C/C(CC(=O)NCc1ccccc1Cl)=N/NC(=O)c1ccccn1
AC50 [4]: 77.8 µM (active)

O=C(Nc1ccc(S(=O)(=O)Nc2nccs2)cc1)/C(=C/c1ccccc1Cl)NC(=O)c1ccccc1
IC50 [5]: 2.73 µM (active) | IC50 [6]: 22.8 µM (active) | IC50 [7]: 6.5 µM (active)

Nc1nc(O)cc(N=Nc2ccc(O)cc2)n1
IC50 (Genome polyprotein): 26.7 µM (active) | IC50 [8]: 15.4 µM (active) | IC50 [9]: 11.6 µM (active) | IC50 [10]: 43.8 µM (inactive) | IC50 [11]: > 66 µM (inactive)

CSc1nnc(NC(=O)c2nc(S(=O)(=O)Cc3ccccc3)ncc2Cl)s1
CC50 (Vero): 31.1 µM (active) | EC50 (Protein RecA): 4.73 µM (active) | IC50 [12]: 5.52 µM (active) | IC50 (Genome polyprotein): 50.6 µM (active) | AC50 [13]: 1.35 µM (active) | AC50 [14]: 14.5 µM (active) | AC50 [15]: 5.23 µM (active) | AC50 [16]: 67.4 µM (active)

Cn1c(-c2ccccc2)cnc1N
AC50 (Cytochrome P450 3A4): 28.2 µM (inconclusive) | AC50 (Escherichia coli): 22.7 µM (active) | AC50 [17]: 102 µM (active)

CCOP(=S)(OCC)Oc1ncn(-c2ccccc2)n1 [TRIAZOPHOS]
AC50 [18]: 11.2 µM (inconclusive)

CCOc1ccc(CCNC(=O)CS(=O)(=O)Cc2nc(-c3ccc(OC)cc3)oc2C)cc1
IC50 [19]: 26.8 µM (inactive) | IC50 [20]: 9.1 µM (active) | IC50 [21]: > 80 µM (inactive)

Nc1ncc2c(n1)CC(c1ccco1)CC2=O (stereo not given)
IC50 [22]: 56.8 µM (inactive) | IC50 [23]: 40.5 µM (inactive)
